ChEMBL document CHEMBL1130829, “Inhibition of human cytomegalovirus protease N(o) with monocyclic beta-lactams” (Bioorg Med Chem Lett, 1998)

What was measured:
Chymotrypsinogen B = Chymotrypsinogen B (Homo sapiens, UniProt P17538); assay: Inhibitory activity against alpha-chymotrypsin
Cathepsin B = Cathepsin B (Homo sapiens, UniProt P07858); assay: Inhibitory activity against Cathepsin B
Neutrophil elastase = molecular target: T1, Neutrophil elastase (Homo sapiens, UniProt P08246); assay: Inhibitory activity against human leukocyte elastase protease(HLE)
T1 sequence (P08246 whole entry): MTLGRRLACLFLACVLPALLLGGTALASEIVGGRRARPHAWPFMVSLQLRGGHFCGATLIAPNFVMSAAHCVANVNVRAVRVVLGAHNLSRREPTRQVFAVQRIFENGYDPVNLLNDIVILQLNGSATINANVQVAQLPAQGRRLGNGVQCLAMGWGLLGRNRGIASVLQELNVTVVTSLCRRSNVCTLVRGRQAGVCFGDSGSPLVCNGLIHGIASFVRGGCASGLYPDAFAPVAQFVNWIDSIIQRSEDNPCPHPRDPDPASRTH

[1] = molecular target: T2, Capsid scaffolding protein (Human cytomegalovirus (strain AD169) (HHV-5) (Human herpesvirus 5), UniProt P16753); assay: Inhibitory activity against human cytomegalovirus (HCMV) protease; set-up: species or system Human herpesvirus 5 strain AD169
T2 sequence (P16753 whole entry): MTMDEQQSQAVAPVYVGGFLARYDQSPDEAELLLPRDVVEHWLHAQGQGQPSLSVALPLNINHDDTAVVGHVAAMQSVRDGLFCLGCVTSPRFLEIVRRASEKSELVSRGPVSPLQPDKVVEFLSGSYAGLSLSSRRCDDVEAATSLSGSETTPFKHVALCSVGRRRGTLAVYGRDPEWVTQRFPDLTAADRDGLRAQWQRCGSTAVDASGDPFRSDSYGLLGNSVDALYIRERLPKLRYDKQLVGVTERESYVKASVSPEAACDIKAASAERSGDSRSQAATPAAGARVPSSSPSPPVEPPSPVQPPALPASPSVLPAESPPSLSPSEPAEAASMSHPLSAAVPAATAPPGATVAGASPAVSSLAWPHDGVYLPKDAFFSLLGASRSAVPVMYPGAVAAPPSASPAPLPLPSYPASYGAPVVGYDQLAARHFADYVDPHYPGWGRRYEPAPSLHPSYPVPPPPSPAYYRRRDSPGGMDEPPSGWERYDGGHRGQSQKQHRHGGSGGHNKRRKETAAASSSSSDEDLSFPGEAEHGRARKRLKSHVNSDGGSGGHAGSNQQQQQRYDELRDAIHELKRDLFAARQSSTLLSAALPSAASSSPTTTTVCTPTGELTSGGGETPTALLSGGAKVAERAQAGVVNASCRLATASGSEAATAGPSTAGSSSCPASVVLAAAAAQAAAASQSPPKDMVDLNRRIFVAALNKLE

Chymotrypsinogen B, sequence (P17538 34-164 limits assumed, other chains not shown): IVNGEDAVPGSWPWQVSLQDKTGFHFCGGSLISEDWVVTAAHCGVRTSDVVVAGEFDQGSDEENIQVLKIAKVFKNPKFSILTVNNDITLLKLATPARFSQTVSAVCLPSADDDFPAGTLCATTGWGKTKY
Chymotrypsinogen B, sequence (P17538 167-263 limits assumed, other chains not shown): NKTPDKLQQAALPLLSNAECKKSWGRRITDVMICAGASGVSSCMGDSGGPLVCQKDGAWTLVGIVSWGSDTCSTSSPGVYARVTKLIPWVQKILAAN

| Compound | IC50 (Chymotrypsinogen B) [µM] | IC50 (Cathepsin B) [µM] | IC50 (Neutrophil elastase) [µM] | IC50 [1] [µM] |
| --- | --- | --- | --- | --- |
| CC[C@@H](NC(=O)N1C(=O)[C@@H](C)[C@@H]1SCc1ccccn1)c1ccccc1 | 1.7 | > 75 | < 0.15 | – |
| C[C@@H](NC(=O)N1C(=O)CC1SCc1ccccn1)c1ccccc1 (stereo partly drawn) | > 75 | > 75 | > 75 | – |
| CC(C)C[C@@H](COC1CC(=O)N1C(=O)N[C@@H](C)c1ccccc1)NC(=O)[C@@H](NC(=O)OC(C)(C)C)C(C)(C)C (stereo partly drawn) | > 75 | > 75 | > 75 | 0.3 |
| C[C@@H](NC(=O)N1C(=O)CC1SCC(=O)c1ccccc1)c1ccccc1 (stereo partly drawn) | > 75 | > 75 | > 75 | – |
| CC[C@@H](NC(=O)N1C(=O)CC1SCc1ccccn1)c1ccccc1 (stereo partly drawn) | > 75 | > 75 | > 75 | – |
| CC[C@H](NC(=O)N1C(=O)CC1SC[C@H](CC(C)C)NC(=O)[C@@H](NC(=O)CC(C)(C)C)C(C)(C)C)c1ccccc1 (stereo partly drawn) | > 75 | > 75 | > 75 | 0.07 |
| C[C@@H](NC(=O)N1C(=O)CC1SCc1ccccc1)c1ccccc1 (stereo partly drawn) | > 75 | > 75 | > 75 | 2.4 |
| C[C@@H](NC(=O)N1C(=O)CC1SCCc1ccccc1)c1ccccc1 (stereo partly drawn) | > 75 | > 75 | > 75 | – |
| C[C@@H](NC(=O)N1C(=O)CC1SCc1cccnc1)c1ccccc1 (stereo partly drawn) | > 75 | > 75 | > 75 | – |
| CC(C)C[C@@H](COC1CC(=O)N1C(=O)N[C@H](C)c1ccccc1)NC(=O)[C@@H](NC(=O)OC(C)(C)C)C(C)(C)C (stereo partly drawn) | > 75 | > 75 | > 75 | 1.4 |
| CC(C)C[C@@H](COC1CC(=O)N1)NC(=O)[C@@H](NC(=O)OC(C)(C)C)C(C)(C)C (stereo partly drawn) | – | – | – | > 300 |
| O=C1CC(SCc2ccccn2)N1C(=O)NCCOCc1ccccc1 (stereo not drawn) | > 75 | > 75 | > 75 | 6.4 |
| C[C@@H](NC(=O)N1C(=O)CC1Sc1ccccc1)c1ccccc1 (stereo partly drawn) | > 75 | > 75 | > 75 | – |
| O=C1CC(SCc2ccccn2)N1C(=O)N[C@H](CO)c1ccccc1 (stereo partly drawn) | > 75 | > 75 | > 75 | – |
| CC(C)C[C@@H](CSC1CC(=O)N1C(=O)NCc1ccccc1)NC(=O)[C@@H](NC(=O)OC(C)(C)C)C(C)(C)C (stereo partly drawn) | 0.8 | > 75 | > 75 | – |
| CC(C)C[C@@H](COC1CC(=O)N1C(=O)NCc1ccccc1)NC(=O)[C@@H](NC(=O)OC(C)(C)C)C(C)(C)C (stereo partly drawn) | 8.3 | > 75 | > 75 | – |
| C[C@@H](NC(=O)N1C(=O)CC1SCc1ccc(CC(=O)OC(C)(C)C)cc1)c1ccccc1 (stereo partly drawn) | > 75 | > 75 | > 75 | 75 |
| C[C@@H](NC(=O)N1C(=O)CC1SCc1ccncc1)c1ccccc1 (stereo partly drawn) | > 75 | > 75 | > 75 | – |
